Data set [1] concerns glioblastoma, prostate cancer, and breast cancer cells. Conditions: cited from earlier work.
The subject of the next data set is β-cells. Particulars: cited from earlier work.
For another data set, the system named is Abca1. The data set can be described thus: Mouse study: expression of the LXR target gene Abca1 in the brain after 5 days of daily dosing. It counts as in vivo, mice. Conditions: for Average ABCA1 FC vs. vehicle (brain): daily for 5 days, 4 hours post dose on day 5. The method, then: (§1) Mice were dosed daily with either: • a. the LXR agonist GW3965 orally at specified concentrations for 5-days, • b. the LXR inverse agonist SR9238 intraperitoneally at specified concentrations for 5-days, or • c. both drugs simultaneously at specified concentrations for 5-days.
(§2) Four hours after the final treatment on day 5, mice were euthanized and tissues were collected.

Data set [2] can be described thus: Mouse study: liver triglycerides after 5 days of daily dosing. Particulars: for Average liver trig: daily for 5 days, 4 hours post dose on day 5. It counts as in vivo, mice. The protocol:
as §1, §2

Setting [3] is: SR9238 30 mg/kg intraperitoneally.
The mark [4] stands for this setting: SR9238 60 mg/kg intraperitoneally.

`CC(C)CC[C@@H](O)[C@@H](C)[C@H]1CC[C@H]2[C@@H]3CC=C4C[C@@H](O)CC[C@]4(C)[C@H]3CC[C@]12C` [22(R)-hydroxycholesterol]: the “proliferation of glioblastoma, prostate cancer, and breast cancer cells (in words)” value in data set [1] is recorded as “suppress the proliferation”.
Regarding `CC(C)[C@@H](O)CC[C@@H](C)[C@H]1CC[C@H]2[C@@H]3CC=C4C[C@@H](O)CC[C@]4(C)[C@H]3CC[C@]12C` [24(S)-hydroxycholesterol], in data set [1], the “proliferation of glioblastoma, prostate cancer, and breast cancer cells (in words)” value is recorded as “suppress the proliferation”.
Regarding `O=C(O)Cc1cccc(OCCCN(Cc2cccc(C(F)(F)F)c2Cl)CC(c2ccccc2)c2ccccc2)c1` [GW-3965], the “effect on β-cells (in words)” value in the data set on β-cells was “interfere with mitochondrial metabolism and metabolism-independent processes in β-cells”. Also, the “Average ABCA1 FC vs. vehicle (brain)” value in the data set on Abca1 (GW-3965 15 mg/kg orally) is on record as 1.6; with Abca1 (GW-3965 30 mg/kg orally), 2.0; with Abca1 (GW-3965 60 mg/kg orally) it was 2.8. Further, the “expression of the LXR target gene Abca1 (in words)” value in the data set with Abca1 (GW-3965 alone, 5 days of daily treatment, brains of mice) was “increased expression”. The figures for the Average liver trig in data set [2] (GW-3965 15 mg/kg orally), in data set [2] (GW-3965 30 mg/kg orally) and in data set [2] (GW-3965 60 mg/kg orally) were 16.3 mg/g, 18.4 mg/g and 29.2 mg/g, respectively. The “liver triglyceride concentrations (in words)” value in data set [2] (GW-3965 alone, 5 days of daily treatment) is on record as “increased liver triglyceride concentrations”.
As for `CCOC(=O)c1ccc(CN(Cc2ccc(-c3cccc(S(C)(=O)=O)c3)cc2)S(=O)(=O)c2c(C)cc(C)cc2C)o1` [SR9238], the “Average ABCA1 FC vs. vehicle (brain)” value worked out at 0.9 with Abca1 (setting [3]) and 1.2 in the data set with Abca1 (setting [4]). Moreover, the values for the Average liver trig in data set [2] (setting [3]) and in data set [2] (setting [4]) were 7.78 mg/g and 8.4 mg/g, respectively.
With `O=S(=O)(c1ccccc1)N(CC(F)(F)F)c1ccc(C(O)(C(F)(F)F)C(F)(F)F)cc1` [T0901317], in the data set on β-cells, the “effect on β-cells (in words)” value was “interfere with mitochondrial metabolism and metabolism-independent processes in β-cells”.

The values above are taken from patent US20240293401A1, “COMBINATION THERAPY WITH AN LXR AGONIST AND AN INHIBITOR COMPOUND” (Asteroid Therapeutics, priority 2023, published 2024).
